Measurements reported in patent US20120265121A1, “PHTHALOCYANINE-BASED ANTIFUNGAL AGENTS” (CASE WESTERN RESERVE UNIVERSITY, priority 2011, published 2012).

How the values were obtained:
[1] = tested on: T. rubrum; test: Clonogenic (CFU) assay after Pc 4-PDT; format: cell-based, Trichophyton rubrum; conditions: 0-2 μM Pc 4, 2.0 J/cm^2
Method: Cells were treated with 0-2 μM of Pc 4 for at least 2 hours before being photoirradiated with 2.0 J/cm^2.
Mycologic cure remains the gold-standard in the evaluation of antifungal therapies and leads to lower recurrence rates. […] Immediately after photoirradiation, treated and control samples were diluted and spread 100 μL onto Sabouraud potato agar plates (Becton Dickinson, New Jersey, USA). All plates were incubated at 28° C. and colonies were counted within 5 days.

[2] = tested on: C. albicans (strain SC-5134); test: FITC-labeled Annexin V staining of protoplasts (phosphatidylserine externalization); format: cell-based, Candida albicans; conditions: 1.0 μM Pc 4-PDT, 2.0 J/cm^2, within 4 to 5 hours of PDT
Method: Cells were then incubated for 4 hr before staining with FITC-labeled Annexin V. FIG. 4(a) provides confocal images of FITC-labeling of cells that had been treated with H2O2 or Pc 4-PDT. Scale bar, 20 μm. FIG. 4(b) provides a bar graph showing the results. For each experiment over 50-100 protoplasts cells were counted per sample. […] Cells were counted by eye using a Zeiss AxiovertTM S100 inverted epifluorescence microscope. Values represent the mean±S.E. from at least three independent experiments. […] Apoptosis Analyses: (A) FITC-labeled Annexin V staining-To assess the externalization of phosphatidylserine, protoplasts of C. albicans were stained with FITC-labeled Annexin V using the Annexin V-FLUOS staining kit (Roche, Germany) with minor modifications. Madeo et al., J Cell Biol 139:729-734 (1997); Park et al., Biochem Biophys Res Commun 394:170-172 (2010). Briefly, control and treated cells were washed three times with 1× PBS before incubating at 37° C. for 30 min in a protoplasting solution (50 mM KH2PO4, 5 mM EDTA and 50 mM DTT). Then cells were digested at 37° C. for 45 min in an enzyme solution (50 mM K2HPO4, 40 mM 2-mercaptoethanol, 3 μg/mL Chitinase, 1.8 μg/mL […], 0.15 mg/mL Zymolyase and 2.4 M sorbitol). 1× PBS was added to each sample and incubated for 30 min at room temperature in all experiments. Protoplasts were then incubated with 100 μL of Annexin V-FLUOS labeling solution for 15 min at 25° C. FITC-labeled Annexin V fluorescence was detected by both widefield (Leica DMI6000B microscope; Leica Microsystems, Inc., Bannockburn, Ill., USA) and confocal fluorescence microscopy.

[3] = topical application; cited from earlier work

In the case of CN(C)CCC[Si](C)(C)O[Si]1(O)n2c3c4ccccc4c2N=C2N=C(N=c4c5ccccc5c(n41)=NC1=NC(=N3)c3ccccc31)c1ccccc12 (stereo not shown) [Pc 4, HOSiPcOSi(CH3)2(CH2)3N(CH3)2], the “survival (CFU)” value ([1]; terbinafine-resistant strain MRL666) is reported as “dose-dependent decrease in the survival”, the “survival (CFU)” value ([1]; terbinafine-sensitive strain 23013) is reported as “dose-dependent decrease in the survival” and the “Annexin V positive cells” value [2] is reported as 20%. The “penetration through stratum corneum and epidermis” value [3] was “penetrate through the stratum corneum and epidermis”.
